Assay [1] addresses T1, EGFR T790M L858R (Homo sapiens, UniProt P00533, L858R/T790M).
T1 construct: purchased Life Technologies PV4879
As to the kind of experiment: EGFR T790M L858R biochemical assay (Caliper mobility shift). The note with it: 5 μM ATP; apparent Ki (Morrison fit) converted by Cheng-Prusoff, Km of ATP 1.3 μM. As to the method:
The exemplified compounds described herein were tested according to the assay below. The enzyme data reported in Tables 4-5 is generally a representative of multiple experiments.
Reactions proceed for 30 minutes at room temperature (22° C.) and are terminated with 80 mM 2,2′,2″,2′″-(ethane-1,2-diyldinitrilo)tetraacetic acid (EDTA). Product is detected using the Caliper mobility shift detection method where product and substrate are electrophoretically separated and measured.

In assay [2] the target is T2, phosphor-EGFR in H1975(L585R/T790M) mutant EGFR expressing cells (Homo sapiens, UniProt P00533, L858R/T790M).
T2 construct: host or cells: NCI-H1975
T2 sequence (P00533 25-1210 T790M/L858R): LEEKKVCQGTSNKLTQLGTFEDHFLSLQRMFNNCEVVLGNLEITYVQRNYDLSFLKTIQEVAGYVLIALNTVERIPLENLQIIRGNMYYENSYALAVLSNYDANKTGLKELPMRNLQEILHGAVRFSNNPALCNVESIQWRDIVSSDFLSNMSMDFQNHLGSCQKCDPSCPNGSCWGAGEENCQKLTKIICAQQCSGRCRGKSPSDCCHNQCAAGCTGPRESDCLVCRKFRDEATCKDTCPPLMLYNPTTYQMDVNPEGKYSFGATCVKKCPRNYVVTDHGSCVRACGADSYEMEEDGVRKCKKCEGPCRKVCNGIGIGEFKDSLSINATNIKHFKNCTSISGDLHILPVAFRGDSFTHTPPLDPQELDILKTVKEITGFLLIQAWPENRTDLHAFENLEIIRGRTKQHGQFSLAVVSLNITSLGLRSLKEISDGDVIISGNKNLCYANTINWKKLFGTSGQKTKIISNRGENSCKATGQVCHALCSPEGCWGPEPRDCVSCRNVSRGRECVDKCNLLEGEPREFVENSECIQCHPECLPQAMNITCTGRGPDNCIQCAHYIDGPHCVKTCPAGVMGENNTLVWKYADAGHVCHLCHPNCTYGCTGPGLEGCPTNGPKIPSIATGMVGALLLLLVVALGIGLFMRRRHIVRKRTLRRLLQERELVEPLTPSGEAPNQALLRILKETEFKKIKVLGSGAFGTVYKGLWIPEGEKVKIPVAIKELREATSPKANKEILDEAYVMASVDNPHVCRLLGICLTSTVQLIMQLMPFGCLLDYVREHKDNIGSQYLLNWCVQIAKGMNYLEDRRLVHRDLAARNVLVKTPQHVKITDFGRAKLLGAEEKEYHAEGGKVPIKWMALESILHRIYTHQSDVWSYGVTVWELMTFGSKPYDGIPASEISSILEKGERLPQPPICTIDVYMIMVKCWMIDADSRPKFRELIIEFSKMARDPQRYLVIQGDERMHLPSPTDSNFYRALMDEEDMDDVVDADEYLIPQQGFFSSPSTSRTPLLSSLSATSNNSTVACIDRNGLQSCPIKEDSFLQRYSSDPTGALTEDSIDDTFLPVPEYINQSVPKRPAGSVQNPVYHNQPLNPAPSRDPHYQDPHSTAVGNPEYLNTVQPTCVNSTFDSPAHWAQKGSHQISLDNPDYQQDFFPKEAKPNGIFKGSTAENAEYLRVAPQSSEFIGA
As to the kind of experiment: H1975 pEGFR MSD cellular assay. The format is cell-based. As to conditions: NCI-H1975 cells, serum starved, 1 hour compound incubation, pEGFR Tyr1068 MSD; read-out: HI975 pEGFR EC50. As to the method:
H1975 pEGFR MSD Cellular Assays
These assays are intended for determining cellular. […] (Meso Scale Discovery Catalog# N31CB-1).
NCI-H1975 (ATCC Catalog# CRL-5908) cells are maintained in medium containing RPMI 1640, 10% FBS, 4 mM L-Glutamine, 1% Penicillin-Streptomycin, and 4.5 g/L Glucose. All cell culture reagents were purchased from Invitrogen/Gibco. Cells are cultured at 37° C. at 5% CO2 and split as recommended by ATCC.
Cell Plating and Serum Starvation:
H1975 cells are harvested and plated into sterile cell culture treated 384 well plates (Greiner catalog #781091) at a density of 30,000 cells/well in 50 ul culture medium and placed in a 37° C. at 5% CO2 incubator for six hours. After six hours, culture medium is aspirated and replaced with serum-free culture medium. Cells are then incubated with the serum-free medium overnight at 37° C. and 5% CO2.
The following day, test compounds are serially diluted in dimethyl sulfoxide (DMSO) and added to cells in serum free medium (final DMSO concentration 0.5%). Assay plates are then incubated for 1 hour at 37° C. and 5% CO2. Following 1 hour of compound incubation cells are then lysed and processed as per the MSD pEGFR assay kit protocol. Cell lysates are added to assay plates pre-coated with antibodies against phosphorylated EGFR. Phosphorylated EGFR in samples are allowed to bind to the capture antibodies overnight at 4° C. The detection antibody (anti-total EGFR, labeled with an electrochemiluminescent SULFO-TAG) is added to the bound lysate and incubated for 1 hour at room temperature. The MSD Read Buffer is added such that when a voltage is applied to the plate electrodes, the labels bound to the electrode surface emit light. The MSD Sector Instrument measures the intensity of the light, and quantitatively measures the amount of phosphorylated-EGFR in the sample. Percent inhibition of EGFR phosphorylation by varying concentrations of test compounds is calculated relative to untreated controls. EC50 values are calculated using the 4 parameter logistic nonlinear regression dose-response model.

The subject of assay [3] is H1975 (EGFR T790M/L858R) cell proliferation. As to the kind of experiment: H1975 proliferation assay (Cell Titer-Glo). The format is cell-based. The note with it: Homo sapiens, NCI-H1975, 72 h, NCI-H1975 cells, 72 hour incubation, read-out: H1975 antiproliferative EC50. As to the method: H1975 Proliferation Assays
All cell culture reagents were purchased from Invitrogen/Gibco. Cells are cultured at 37° C. at 5% CO2 and split as recommended by ATCC.
For orientation: Cellular ATP, detected with luciferase, serves as a proxy for viable cell number.

Drawing on US9951064B2, “Azaindazole compounds as inhibitors of T790M containing EGFR mutants” (Genentech, Inc., priority 2013, dated 2018), this text covers Ki and EC50 for 19 compounds.

For orientation: EC50 means the midpoint of the concentration-response curve.

T1 sequence (P00533 25-1210 T790M/L858R): as above

Regarding `COCCNC(=O)C1CN(c2nn(C(C)C)c3cc(Nc4ccnc(-c5cnn(S(=O)(=O)C6CC6)c5)n4)ncc23)C1` [Example 30, 1-(6-(2-(1-(Cyclopropylsulfonyl)-1H-pyrazol-4-yl)pyrimidin-4-ylamino)-1-isopropyl-1H-pyrazolo[4,3-c]pyridin-3-yl)-N-(2-methoxyethyl)azetidine-3-carboxamide], the Ki in assay [1] was 0.7 nM. For the same compound, the half-maximal effective concentration (EC50) in assay [2] amounted to 51.3 nM; in assay [3], 1450 nM.

With `CC(C)n1nc(N2CCCC2)c2cnc(Nc3ccnc(-c4cnn(CC5CC5)c4)n3)cc21` [Example 31, N-(2-(1-(cyclopropylmethyl)-1H-pyrazol-4-yl)pyrimidin-4-yl)-1-isopropyl-3-(pyrrolidin-1-yl)-1H-pyrazolo[4,3-c]pyridin-6-amine], in assay [1], the Ki was 1.4 nM. Further, the concentration for a half-maximal effect (EC50) was 116 nM in assay [2] and 1060 nM in assay [3].

As to `CC(C)n1ncc2cnc(Nc3ccnc(-c4cnn(CC5CC5)c4)n3)cc21` [Example 32, N-(2-(1-(cyclopropylmethyl)-1H-pyrazol-4-yl)pyrimidin-4-yl)-1-isopropyl-1H-pyrazolo[4,3-c]pyridin-6-amine], the Ki in assay [1] is 35.6 nM. Moreover, the EC50 in assay [2] stood at 3830 nM; in assay [3] it was 498 nM.

For `CC(C)n1ncc2cnc(Nc3ccnc(N4CCC(O)C(C)(C)C4)n3)cc21` (stereo not drawn) [Example 33, 1-(4-((1-isopropyl-1H-pyrazolo[4,3-c]pyridin-6-yl)amino)pyrimidin-2-yl)-3,3-dimethylpiperidin-4-ol], the Ki in assay [1] was 7.5 nM. Besides, the values for the EC50 in assay [2] and in assay [3] were 1020 nM and 110 nM, respectively.

Regarding `CC(C)n1nc(N2CCOCC2)c2cnc(Nc3ccnc(N4CCC(O)C(C)(C)C4)n3)cc21` (stereo not drawn) [Example 34], the Ki in assay [1] stood at 2.6 nM. Moreover, the EC50 in assay [2] was determined as 111 nM; in assay [3], 1410 nM.

In the case of `CCS(=O)(=O)n1cc(-c2nccc(Nc3cc4c(cn3)c(N3CC(CO)C3)nn4C(C)C)n2)cn1` [Example 36, (1-(6-(2-(1-(ethylsulfonyl)-1H-pyrazol-4-yl)pyrimidin-4-ylamino)-1-isopropyl-1H-pyrazolo[4,3-c]pyridin-3-yl)azetidin-3-yl)methanol], the Ki in assay [1] stood at 0.7 nM. Further, the EC50 in assay [2] is 15.8 nM; in assay [3] it was 397 nM.

Consider `CC(C)n1nc(N[C@H]2CCOC2)c2cnc(Nc3ccnc(-c4cnn(S(=O)(=O)C5CC5)c4)n3)cc21` [Example 39, (S)-N6-(2-(1-(cyclopropylsulfonyl)-1H-pyrazol-4-yl)pyrimidin-4-yl)-1-isopropyl-N3-(tetrahydrofuran-3-yl)-1H-pyrazolo[4,3-c]pyridine-3,6-diamine], for which the Ki in assay [1] turned out to be 1.1 nM. Besides, the concentration giving a half-maximal response (EC50) was 71.1 nM in assay [2] and 373 nM in assay [3].

Regarding `CC(C)n1nc(N[C@@H]2CCOC2)c2cnc(Nc3ccnc(-c4cnn(S(=O)(=O)C5CC5)c4)n3)cc21` [Example 40, (R)-N6-(2-(1-(cyclopropylsulfonyl)-1H-pyrazol-4-yl)pyrimidin-4-yl)-1-isopropyl-N3-(tetrahydrofuran-3-yl)-1H-pyrazolo[4,3-c]pyridine-3,6-diamine], the Ki in assay [1] came to 1.1 nM. The half-maximal effective concentration (EC50) was determined as 84.8 nM in assay [2] and 775 nM in assay [3].

For `CC(C)n1nc(N2CC[C@@H](CO)C2)c2cnc(Nc3ccnc(-c4cnn(S(=O)(=O)C5CC5)c4)n3)cc21` [Example 41, (R)-(1-(6-(2-(1-(cyclopropylsulfonyl)-1H-pyrazol-4-yl)pyrimidin-4-ylamino)-1-isopropyl-1H-pyrazolo[4,3-c]pyridin-3-yl)pyrrolidin-3-yl)methanol], the Ki in assay [1] is 1.3 nM. Besides, the results for the EC50 in assay [2] and in assay [3] were 9.4 nM and 162 nM, respectively.

Turning to `CC(C)n1nc(N2CC(O)C(F)C2)c2cnc(Nc3ccnc(-c4cnn(S(=O)(=O)C5CC5)c4)n3)cc21` (stereo not drawn) [Example 42, 1-(6-(2-(1-(cyclopropylsulfonyl)-1H-pyrazol-4-yl)pyrimidin-4-ylamino)-1-isopropyl-1H-pyrazolo[4,3-c]pyridin-3-yl)-trans-4-fluoropyrrolidin-3-ol], the Ki in assay [1] came to 1.1 nM. Further, the concentration giving a half-maximal response (EC50) in assay [2] was found to be 12.5 nM; in assay [3] it was 240 nM.

Consider `CC(C)n1nc(N2CCN=C2O)c2cnc(Nc3ccnc(-c4cnn(S(=O)(=O)C5CC5)c4)n3)cc21` [Example 43, 1-(6-(2-(1-(cyclopropylsulfonyl)-1H-pyrazol-4-yl)pyrimidin-4-ylamino)-1-isopropyl-1H-pyrazolo[4,3-c]pyridin-3-yl)-4,5-dihydro-1H-imidazol-2-ol], for which, in assay [1], the Ki came to 0.9 nM. Further, the EC50 in assay [2] worked out at 37.5 nM; in assay [3], 237 nM.

On to `CC(C)n1nc(N)c2cnc(Nc3ccnc(-c4cnn(S(=O)(=O)C5CC5)c4)n3)cc21` [Example 45, N^6-(2-(1-(cyclopropylsulfonyl)-1H-pyrazol-4-yl)pyrimidin-4-yl)-1-isopropyl-1H-pyrazolo[4,3-c]pyridine-3,6-diamine], for which, in assay [1], the Ki turned out to be 0.8 nM. Also, the EC50 in assay [2] is 63.8 nM; in assay [3], 247 nM.

`CC(C)Nc1nn(C(C)C)c2cc(Nc3ccnc(-c4cnn(S(=O)(=O)C5CC5)c4)n3)ncc12` [Example 46, N^6-(2-(1-(cyclopropylsulfonyl)-1H-pyrazol-4-yl)pyrimidin-4-yl)-N^3,1-diisopropyl-1H-pyrazolo[4,3-c]pyridine-3,6-diamine]: in assay [1], the Ki amounted to 2.7 nM. The results for the EC50 in assay [2] and in assay [3] were 153 nM and 951 nM, respectively.

Regarding `CC(C)n1nc(NCCC(N)=O)c2cnc(Nc3ccnc(-c4cnn(S(=O)(=O)C5CC5)c4)n3)cc21` [Example 47, 3-(6-(2-(1-(cyclopropylsulfonyl)-1H-pyrazol-4-yl)pyrimidin-4-ylamino)-1-isopropyl-1H-pyrazolo[4,3-c]pyridin-3-ylamino)propanamide], the Ki in assay [1] was determined as 0.8 nM. Further, the values for the concentration giving a half-maximal response (EC50) in assay [2] and in assay [3] were 874 nM and 3970 nM, respectively.

`CC(C)n1nc(NCC(N)=O)c2cnc(Nc3ccnc(-c4cnn(S(=O)(=O)C5CC5)c4)n3)cc21` [Example 48, 2-(6-(2-(1-(cyclopropylsulfonyl)-1H-pyrazol-4-yl)pyrimidin-4-ylamino)-1-isopropyl-1H-pyrazolo[4,3-c]pyridin-3-ylamino)acetamide]: the Ki in assay [1] turned out to be 0.6 nM. For the same compound, the EC50 in assay [2] came to 1460 nM; in assay [3], 5440 nM.

As for `CC(C)n1nc(N(C)CC(O)CO)c2cnc(Nc3ccnc(-c4cnn(S(=O)(=O)C5CC5)c4)n3)cc21` (stereo not drawn) [Example 49, 3-((6-(2-(1-(cyclopropylsulfonyl)-1H-pyrazol-4-yl)pyrimidin-4-ylamino)-1-isopropyl-1H-pyrazolo[4,3-c]pyridin-3-yl)(methyl)amino)propane-1,2-diol], in assay [1], the Ki worked out at 0.7 nM. Besides, the EC50 in assay [2] is 98 nM; in assay [3], 945 nM.

For the compound `CC(C)c1nn(C(C)C)c2cc(Nc3ccnc(-c4cnn(S(=O)(=O)C5CC5)c4)n3)ncc12` [Example 50, N-(2-(1-(cyclopropylsulfonyl)-1H-pyrazol-4-yl)pyrimidin-4-yl)-1,3-diisopropyl-1H-pyrazolo[4,3-c]pyridin-6-amine], the Ki in assay [1] was determined as 23.5 nM. The EC50 in assay [2] amounted to 2380 nM; in assay [3], 3700 nM.

For `CC(C)n1nc(N2CCOCC2)c2cnc(Nc3ccnc(-c4cnn(S(=O)(=O)C5CC5)c4)n3)cc21` [Example 51, N-(2-(1-(cyclopropylsulfonyl)-1H-pyrazol-4-yl)pyrimidin-4-yl)-1-isopropyl-3-morpholino-1H-pyrazolo[4,3-c]pyridin-6-amine], in assay [1], the Ki worked out at 1.9 nM. For the same compound, the EC50 is 74.4 nM in assay [2] and 266 nM in assay [3].

`CC(C)n1nc(NC2CCOCC2)c2cnc(Nc3ccnc(-c4cnn(S(=O)(=O)C5CC5)c4)n3)cc21` [Example 52, N^6-(2-(1-(cyclopropylsulfonyl)-1H-pyrazol-4-yl)pyrimidin-4-yl)-1-isopropyl-N^3-(tetrahydro-2H-pyran-4-yl)-1H-pyrazolo[4,3-c]pyridine-3,6-diamine]: the Ki in assay [1] came out at 2.2 nM. Besides, the figures for the EC50 in assay [2] and in assay [3] were 90.1 nM and 1110 nM, respectively.
